Test results: PubChem BioAssay (NCI)
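Method: 48-hour compound exposure of cells in 96-well plates, five concentrations, linear interpolation of endpoints. GI50 is the concentration that inhibits growth by half. TGI: concentration producing complete growth inhibition.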 Activity calls are given as the source filed them. Cut-off read from the data, not from the text of the source: active = GI50 below about 0.43 µM; inactive = the rest.

How the values were obtained:
Test in all cases: inhibition of tumour cell growth, NCI panel, 48 h
ACHN renal = system: ACHN renal
EKVX NSCLC = system: EKVX NSCLC
HCT-15 colon = system: HCT-15 colon
HOP-62 NSCLC = system: HOP-62 NSCLC
MCF7 breast = system: MCF7 breast
OVCAR-3 ovarian = system: OVCAR-3 ovarian
SF-295 CNS = system: SF-295 CNS
UACC-62 melanoma = system: UACC-62 melanoma

SMILES | GI50 (ACHN renal) [µM] | TGI (ACHN renal) [µM] | GI50 (EKVX NSCLC) [µM] | TGI (EKVX NSCLC) [µM] | GI50 (HCT-15 colon) [µM] | TGI (HCT-15 colon) [µM] | GI50 (HOP-62 NSCLC) [µM] | TGI (HOP-62 NSCLC) [µM] | GI50 (MCF7 breast) [µM] | TGI (MCF7 breast) [µM] | GI50 (OVCAR-3 ovarian) [µM] | TGI (OVCAR-3 ovarian) [µM] | GI50 (SF-295 CNS) [µM] | TGI (SF-295 CNS) [µM] | GI50 (UACC-62 melanoma) [µM] | TGI (UACC-62 melanoma) [µM] | outcome (HOP-62 NSCLC) | outcome (OVCAR-3 ovarian) | outcome (SF-295 CNS)
CC/C=C\C[C@H](F)C/C=C1/C(=O)C=C[C@@H]1C/C=C\CCCC(=O)O | 4.99 | 9.85 | 7.59 | 25.1 | 4.45 | 13.8 | 7.65 | 15.2 | 1.32 | > 32.5 | 7.96 | 22.1 | 7.54 | 17.2 | 4.29 | 11.1 |  |  | 
O=C1Nc2ccccc2C1(c1ccc(O)cc1)c1ccc(O)cc1 | 17.9 | > 100 | 14.5 | 90 | 19.2 | > 100 | 20.5 | 53.1 | 0.378 | 27.8 | 0.11 | 0.899 | 16.2 | 49.4 | 19.2 | 43.8 |  |  | 
Cc1ccc2c(c1)Sc1c(ccc3ccccc13)N2 | 55.5 | > 100 | > 100 | > 100 | 1.45 | > 100 | > 100 | > 100 | > 100 | > 100 | > 100 | > 100 | 15.4 | > 100 | 73.8 | > 100 |  |  | 
CS(=O)(=O)c1ccc(-n2nc(C(F)(F)F)cc2OC2CCCC2)cc1 | 22.4 | 56 | 82.5 | > 100 | 30.6 | 80.1 | 88 | > 100 | 25.4 | 80.2 | 32.9 | > 100 | 37.4 | > 100 | 33.3 | > 100 |  |  | 
Nc1nc(N(Cc2ccccc2)c2ccccc2)c2cn[nH]c2n1 | 5 | > 100 | 3.57 | > 100 | 4.24 | > 100 | 3.47 | > 100 | 4.34 | > 100 | 3.34 | 41.1 | 2.87 | 62.4 | 4.32 | > 100 |  |  | 
COc1cc2cc(Oc3ccc(NC(=O)Nc4ccc(Cl)c(C(F)(F)F)c4)cc3)c(C)nc2cc1OCCN1CCOCC1 | 2.03 | 11.6 | 2.07 | 13.7 | 1.45 | 3.18 | 2.05 | 4.55 | 1.26 | 3.33 | 1.52 | 3.47 | 1.19 | 2.85 | 1.36 | 3.46 |  |  | 
O=C(CCc1nnc2sc(-c3ccc(Cl)cc3Cl)nn12)c1nc2ccccc2[nH]1 | 0.337 | 1.29 | 1.93 | 5.92 | 0.452 | 2.77 | 0.577 | 2.12 | 0.466 | 2.45 | 0.491 | 1.71 | 1.65 | 5.56 | 1.19 | 2.62 |  |  | 
CCOC(=S)SSSC(=S)OCC |  | 41.9 |  | > 100 |  | 46.8 |  | > 100 |  | > 100 |  | > 100 |  | > 100 |  | > 100 |  |  | 
CCCC(=O)OCC1OC(n2cnc3c(=S)nc[nH]c32)C(OC(=O)CCC)C1OC(=O)CCC (stereo not given) | 6.15 | > 100 | 35 | > 100 | 7.22 | > 100 | 2.84 | > 100 | 1.95 | > 100 | 0.92 | > 100 | 3.53 | > 100 | 1.91 | > 100 |  |  | 
C#CCNC(=O)c1cccc2c1cc(C)n2-c1nc2c(c(NCc3ccccc3)n1)CCCC2 | 0.0255 | 0.11 | 0.028 | 0.112 | 0.0197 | 0.0474 | 0.0308 | 0.114 | 0.0151 | 0.142 | 0.0236 | 0.057 | 0.0175 | 0.0418 | 0.0158 | 0.0359 |  |  | 
COc1ccc(C(=O)C#Cc2cnc(OC)nc2OC)cc1 | 17200 |  | 23700 |  | 17200 |  |  | 30.7 |  | 2.54 |  | 3.24 |  | 24.8 | 31900 | 2.8 | inactive | inactive | inactive
CS(=O)(=O)CCNCc1ccc(-c2ccc3ncnc(Nc4ccc(OCc5ccccc5)cc4)c3c2)o1 | 1.28 | > 25 | 0.371 | 24.7 | 4.13 | 13.4 | 9.66 | > 25 | 2.84 | > 17.7 | 8.47 | > 25 | 4.89 | 10.8 | 4.68 | 8.98 |  |  | 
